This is an account of results in publication PMC5467183 (ACS Medicinal Chemistry Letters, 2017).

As usually defined, the clearance is the rate of elimination divided by the concentration. In general, bioavailability refers to the share of a dose that reaches the circulation, judged against a reference dose that is usually intravenous. A low value points to poor availability. As a reminder, the kinetic solubility is the concentration staying in solution when a stock, usually in DMSO, is diluted into the medium. As a reminder, the pIC50 is the IC50 on a negative log10 scale, so that one unit is a factor of ten.

The structures appear in SMILES notation. pIC50: −log10 of the molar value. Where only a bound is given, the exact number is not on record here.

A short description of one series: Rat pharmacokinetics. The class given is in vivo.
A further series can be described thus: physchem. The conditions noted are these: pH 7.4, Sol. (kinetic solubility).
Series [1] relates to CD86 surface expression on B cells. Nature of the series: cells. The conditions noted are these: Mus musculus, B-cell, read-out: CD86 IC50.
For series [2] the following is noted: human hepatocytes.
For series [3] the following is noted: MDCK, A to B.
For series [4] the following is noted: rat hepatocytes.
Series [5] concerns collagen-induced arthritis (CIA) model in Lewis rat. The conditions noted are these: 0.05 mg/kg daily, days 10–17.

In the case of `Cn1cc(-c2cccc(N3CCc4c(sc5c4CC(C)(C)C5)C3=O)c2CO)cc(Nc2ccncn2)c1=O` [compound 7], the “Rat CL (total clearance)” value in the series “Rat pharmacokinetics” (1 mg/kg i.v.) is on record as 16 mL/min/kg. In addition, the clearance in the series “Rat pharmacokinetics” (in vivo, iv, 1 mg/kg) was found to be 16 mL/min/kg. In “Rat pharmacokinetics” (in vivo, po, 5 mg/kg, pH 3), this molecule had a bioavailability of 37%.

Consider `Cn1cc(-c2cccc(N3CCc4cc(C(C)(C)C)ccc4C3=O)c2CO)cc(Nc2ccncn2)c1=O` [compound 9], for which the solubility (kinetic) in “physchem” was under 2 µM. In addition, the pIC50 in series [1] is over 7.00.

Consider `CN1CCN(c2ccc(Nc3cc(-c4cccc(N5CCn6c(cc7c6CCCC7)C5=O)c4CO)cn(C)c3=O)nc2)CC1` [compound 17], for which the “HHep (projected hepatic clearance)” value in series [2] stood at 10. In series [3], the Perm. result was “MOD (MOD: 1–10 (10^–6 cm/s))”. In addition, the “RHep (projected hepatic clearance)” value in series [4] is reported as 12.

Consider `Cn1cc(-c2cccc(N3CCn4c(cc5c4CCCC5)C3=O)c2CO)cc(Nc2ccc(N3CCN(C4COC4)CC3)cn2)c1=O` [compound 18], for which the “HHep (projected hepatic clearance)” value in series [2] is under 6. Further, in series [3], the Perm. result was “MOD (MOD: 1–10 (10^–6 cm/s))”. For the same molecule, the “RHep (projected hepatic clearance)” value in series [4] is under 10.

For `CN1CCN(c2ccc(Nc3cc(-c4cc(F)cc(N5CCn6c(cc7c6CCCC7)C5=O)c4CO)cn(C)c3=O)nc2)CC1` [compound 19], the “HHep (projected hepatic clearance)” value in series [2] is recorded as under 6.2. The Perm. result in series [3] is “MOD (MOD: 1–10 (10^–6 cm/s))”. Further, the “RHep (projected hepatic clearance)” value in series [4] is on record as under 10.1.

For `Cn1cc(-c2cc(F)cc(N3CCn4c(cc5c4CCCC5)C3=O)c2CO)cc(Nc2ccc(N3CCN(C4COC4)CC3)cn2)c1=O` [compound 20], in series [2], the “HHep (projected hepatic clearance)” value was under 6. Further, the Perm. entry in series [3] is reported as “HIGH (HIGH: >10 (10^–6 cm/s))”. For the same molecule, in series [4], the “RHep (projected hepatic clearance)” value is given as under 10.

As for `C[C@@H]1C[C@H]2[C@@H]3CCC4=CC(=O)C=C[C@]4(C)[C@@]3(F)[C@@H](O)C[C@]2(C)[C@@]1(O)C(=O)CO` [dexamethasone], the ankle diameter entry in series [5] is listed as “significantly (by ANOVA) reduced toward normal”.
